Where “and” joins values, the source holds several entries; their conditions need not be identical. Equal entries are not always repeated.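 Grown in 96-well plates, cells were treated for 48 hours with each compound at five concentrations. Insufficient inhibition: endpoint recorded as highest concentration tested. Here, GI50 denotes the concentration required for 50% inhibition of growth. The concentration for full growth arrest is given as TGI.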
Tests used:
Assay in all cases: DTP human tumour cell line panel, 48 h
[1] = tested on: HOP-62 NSCLC
[2] = tested on: A549 NSCLC
[3] = tested on: RXF 393 renal
[4] = tested on: 786-0 renal
[5] = tested on: SW-620 colon
[6] = tested on: SR leukemia
[7] = tested on: M14 melanoma
[8] = tested on: SK-MEL-5 melanoma
[9] = tested on: RPMI-8226 leukemia
[10] = tested on: NCI/ADR-RES ovarian

SMILES	TGI [1]	TGI [2]	TGI [3]	TGI [4]	TGI [5]	TGI [6]	TGI [7]	TGI [8]	TGI [9]	GI50 [9]	GI50 [1]	GI50 [10]	TGI [10]	GI50 [2]	GI50 [3]	GI50 [4]	GI50 [5]	GI50 [7]	GI50 [8]	GI50 [6]
O=C(COC(=O)c1cccc2c(=O)c3ccccc3[nH]c12)Nc1ccc(Cl)cc1	78.5 µM	> 100 µM	66 µM	> 100 µM	> 100 µM	> 100 µM	> 100 µM	> 100 µM												
CCOC(=O)/C(C#N)=C\Sc1ccccc1	86.5 µM	> 100 µM	35.1 µM	29.1 µM	72.6 µM	45.2 µM	35.6 µM	> 100 µM	> 100 µM											
Cc1ccc(C)c(NC(=O)C(=O)C2C(=O)N(c3ccccc3)N=C2N)c1 (centres undefined)	> 100 µM	> 100 µM	> 100 µM	> 100 µM	> 100 µM		> 100 µM	> 100 µM	> 100 µM											
O=C1C(Cl)=C(Cl)C(=O)N1c1ccc(F)cc1	98.7 µM	> 100 µM	38.5 µM	31 µM	34.1 µM	47.2 µM	39.5 µM	> 67.9 µM	59.7 µM											
CN(CCCN1C(=O)c2cccc3cc([N+](=O)[O-])cc(c23)C1=O)CCN(C)CCCN1C(=O)c2cccc3cc([N+](=O)[O-])cc(c23)C1=O	> 39.3 µM	> 39.3 µM	> 39.3 µM	> 39.3 µM	> 39.3 µM		> 39.3 µM	> 39.3 µM	> 39.3 µM											
C[C@]12CC(C=O)C(=O)C(O)=C1CC[C@@H]1C2CC[C@@]2(C)C1CC[C@]2(C)O (some centres undefined)	> 100 µM	> 100 µM	37.3 µM	44.4 µM	> 100 µM		35 µM	34.5 µM	48.8 µM											
Cc1cc(Cl)ccc1N=C1NC(=O)C(CC(=O)Nc2cccc(C)c2C)S1 (centres undefined)	62.6 µM	96.3 µM		47.9 µM	> 100 µM		50.9 µM	41.4 µM	64.2 µM											
O=c1cc(-c2ccccc2)oc2cc(OCCCCCN3CCOCC3)cc(O)c12	23.1 µM	> 100 µM	46.1 µM	> 100 µM	> 100 µM		> 100 µM	> 100 µM	> 100 µM	62.3 µM	10.2 µM	72 µM	> 100 µM	> 100 µM	16.8 µM	30 µM	> 100 µM	> 100 µM	> 100 µM	
O=C1NC2(CCCCC2)C2CCCCC=C12 (centres undefined)	> 100 µM	> 100 µM	> 100 µM	> 100 µM	> 100 µM	> 100 µM	> 100 µM	> 100 µM	> 100 µM											
Cc1ccc(-c2c3c(nn2-c2ccc(S(=O)(=O)NC(=O)NC4CCCCC4)cc2)-c2ccccc2C3)cc1	38.2 µM	44 µM	63.1 µM	13.8 µM	6.31 µM		30.1 µM	9.39 µM	7.42 µM	2.44 µM	18.8 µM	16 µM	54.5 µM	20.2 µM	23.3 µM	2.29 µM	2.65 µM	14.8 µM	1.33 µM	
O=C(O)/C(Cl)=C(Cl)/C=N/NC(=O)c1cc2ccccc2cc1O	> 100 µM	> 100 µM		> 100 µM	> 100 µM	39.3 µM	56 µM	24.6 µM	> 100 µM											
COC(=O)c1ccc(C(=O)OC)c2nc3cc(Cl)ccc3nc12	> 100 µM	> 100 µM		> 100 µM	> 100 µM		> 100 µM	> 100 µM	> 100 µM											
CCC[CH2][Sn]([CH2]CCC)([O]C(=O)c1cc(F)ccc1F)[O]C(=O)c1cc(F)ccc1F	4.04 µM	21 µM	1.12 µM	2.37 µM	1.91 µM	8.74 µM	2.81 µM	2.91 µM			2.39 µM			7.72 µM	0.326 µM	1.15 µM	0.619 µM	1.47 µM	1.57 µM	0.502 µM
Cn1c2c(c3ccccc3c1=O)C(=O)c1ccccc1-2	> 100 µM	> 100 µM		> 100 µM	> 100 µM	> 100 µM	> 100 µM	> 100 µM	> 100 µM				> 100 µM							
N#CC(C(=N/O)/C(=N\O)C(C#N)c1ccccc1)c1ccccc1 (centres undefined)	> 100 µM	> 100 µM	> 100 µM	> 100 µM	> 100 µM		> 100 µM	> 100 µM	> 100 µM											
O=[N+]([O-])c1cccc(S(=O)(=O)N/N=C/c2cc(I)cc([N+](=O)[O-])c2O)c1	57.2 µM	> 100 µM	56.3 µM	> 100 µM	58.5 µM	60.9 µM	77 µM	44 µM	86.2 µM											
Cc1cc2c3c([n+](C)c4ccc(F)cc4c3c1)-c1cc(F)ccc1N2C	> 100 µM	> 100 µM	> 100 µM	> 100 µM	> 100 µM		62.9 µM	22.1 µM	36.4 µM	5.13 µM	9.84 µM	> 100 µM	> 100 µM	43.5 µM	> 100 µM	6.24 µM	13.5 µM	23.4 µM	5.29 µM	
Nn1c(-c2cccc(Cl)c2)nc2ccccc2c1=O	> 100 µM	> 100 µM		> 100 µM	> 100 µM		> 100 µM	> 100 µM	> 100 µM											
COc1ccc(/C=C\c2cc(OC)c(OC)c(OC)c2)cc1OC(=O)CC(N)C(=O)O (centres undefined)	> 100 µM	49.5 µM			> 100 µM								0.000534 µM	0.00304 µM	0.00122 µM	0.000174 µM	0.000318 µM	0.00046 µM	0.000453 µM and 0.00141 µM	

SMILES	TGI [1]	TGI [2]	TGI [3]	TGI [4]	TGI [5]	TGI [6]	TGI [7]	TGI [8]	TGI [9]	GI50 [9]	GI50 [1]	GI50 [10]	TGI [10]	GI50 [2]	GI50 [3]	GI50 [4]	GI50 [5]	GI50 [7]	GI50 [8]	GI50 [6]
C[C@]12Cc3conc3C(O)=C1CC[C@@H]1C2CC[C@@]2(C)C1CC[C@]2(C)O (some centres undefined)	64.2 µM	> 100 µM	44 µM	> 100 µM	> 100 µM		36.2 µM	30.7 µM	22.7 µM											
CN(C)CC1C(=O)O[C@H]2[C@H]1CC/C(COC(=O)NCc1ccc(Cn3c(=O)sn(CCCI)c3=O)cc1)=C\CC[C@@]1(C)O[C@@H]21 (some centres undefined)	12.7 µM	14.4 µM	1.71 µM	2.43 µM	2.09 µM		1.92 µM	13.3 µM	6.88 µM	1.75 µM	4.23 µM	10.2 µM	30.1 µM	7.17 µM	0.889 µM	1.1 µM	0.998 µM	0.893 µM	6.53 µM	
CN(C)C(=S)/N=c1\ssc(=S)n1Cc1ccco1	> 63.1 µM	> 100 µM	8.22 µM	> 46.4 µM	> 100 µM	> 100 µM	> 100 µM	38.2 µM	> 100 µM											
Cc1cc(-c2nc3n(c2/C=N/N=C(N)N)CCS3)c(C)s1	31.3 µM	44.3 µM		30.8 µM	35 µM		32.9 µM	29.9 µM	30.7 µM	14 µM	17.5 µM	74.4 µM	> 100 µM	15.7 µM		17.1 µM	18.5 µM	18.9 µM	16.3 µM	
COC(=O)C12C34C=CC5(CCC6(C=CC1(CC3)O6)C52C(=O)OC)O4 (centres undefined)	> 100 µM	> 100 µM	> 100 µM	> 100 µM	> 100 µM	> 100 µM														
CC(=O)[CH-]C(=O)c1ccccc1.CC(=O)[CH-]C(=O)c1ccccc1.CC[C@H](/C=C/C(C)[C@H]1CCC2[C@@H]3CC=C4C[C@@H]([O-])CC[C@]4(C)C3CC[C@@]21C)C(C)C.CC[C@H](/C=C/C(C)[C@H]1CCC2[C@@H]3CC=C4C[C@@H]([O-])CC[C@]4(C)C3CC[C@@]21C)C(C)C.Cl.[Ti+4] (some centres undefined)	> 25 µM	> 25 µM	> 25 µM	> 25 µM	> 25 µM		> 25 µM	> 25 µM	> 25 µM	> 25 µM	> 25 µM			> 25 µM	> 25 µM	23 µM	> 25 µM	> 25 µM	> 25 µM	
COC(=O)C(=O)C(C(C)=O)C(=O)NCc1ccccc1 (centres undefined)	> 100 µM	> 100 µM	> 100 µM	> 100 µM	19 µM	> 100 µM	> 100 µM	> 100 µM	> 100 µM											
COc1cc2c3cc1Oc1c(OC)c(OC)cc4c1[C@@H](Cc1ccc(O)c(c1)Oc1ccc(cc1)C[C@@H]3N(C)CC2)N(C)CC4	36 µM	62 µM	25.9 µM	25.6 µM	33.8 µM	4.95 µM	16.7 µM	11.8 µM	41.5 µM											
O=C1C(Cl)=C(Cl)C(=O)N1c1cccc(C(F)(F)F)c1	> 100 µM	> 100 µM	70 µM	> 100 µM	> 100 µM	> 100 µM	> 100 µM	> 100 µM	> 100 µM											
CC(C)N1C(C)[C@@H](c2ccccc2)O[P@@]1(=O)CC1=CCCCC1 (some centres undefined)	> 100 µM	> 100 µM	> 100 µM	> 100 µM	> 100 µM	> 100 µM	> 100 µM	> 100 µM	> 100 µM											
CC(C)(C)C(=O)c1c(C(F)(F)F)n([O-])c2cc(Cl)c(Cl)cc2[n+]1=O	2.89 µM	2.39 µM	0.909 µM	0.882 µM	0.644 µM		2.57 µM	1.1 µM	0.281 µM	0.131 µM	1.53 µM	0.567 µM	1.37 µM	0.952 µM	0.438 µM	0.466 µM	0.244 µM	0.998 µM	0.277 µM	
COc1cccc2c(SCC(=O)Nc3ccccc3-c3ccccc3NC(=O)CSc3c4ccccc4nc4c(OC)cccc34)c3ccccc3nc12	> 100 µM	> 100 µM	> 100 µM	> 100 µM		> 100 µM	> 100 µM	> 100 µM												
COc1cc2c3c(n([C@@H]4CCOC4)c(=O)c2cc1OC)-c1cc2c(cc1C3=O)OCO2		> 100 µM		0.0183 µM	> 100 µM		> 100 µM		> 100 µM	0.0127 µM		< 0.01 µM	> 100 µM	0.0107 µM		< 0.01 µM	< 0.01 µM	< 0.01 µM		
CCCCCN(CCCCC)C(=O)[C@H](CCC(=O)O)NC(=O)c1cc2ccccc2[nH]1	> 100 µM	> 100 µM	93.5 µM	> 100 µM	> 100 µM		> 100 µM		54.8 µM											
Cc1cc(Cl)nc(N(CCCNc2ccnc3cc(Cl)ccc23)Cc2cccs2)n1	10.7 µM	12.5 µM	5.22 µM	4.35 µM	8.75 µM		2.91 µM	2.79 µM	3.84 µM	0.83 µM	1.83 µM	1.06 µM	6.53 µM	2.96 µM	1.37 µM	1.49 µM	1.1 µM	1.23 µM	1.42 µM	
CCOC(=O)C(=O)Nc1c(C)cccc1C(C)(C)C	> 100 µM		> 100 µM	> 100 µM	> 100 µM		> 100 µM	> 100 µM	> 100 µM											
CCn1cc(C(=O)N/N=C/c2cccs2)c(=O)c2cc(F)c(N3CCNC(C)C3)c(F)c21 (centres undefined)	3.17 µM	3.37 µM	3 µM	3.38 µM	3.17 µM			3.19 µM			1.59 µM	1.8 µM	3.48 µM	1.8 µM	1.47 µM	1.8 µM	1.71 µM		1.78 µM	
COC(=O)c1ccc(NC(=O)c2ccc(NC3=C(Cl)C(=O)N(Cc4ccccc4)C3=O)cc2)cc1	23.1 µM	29.2 µM	48.3 µM	22.9 µM	33 µM		30.8 µM	> 100 µM	16.3 µM	3.74 µM	11.1 µM	14 µM	27 µM	15.8 µM	22.9 µM	10.9 µM	15.1 µM	17.1 µM	34.7 µM	

— PubChem BioAssay (NCI)
